This is an account of results in PMC6927504, “Screening of House Dust from Chinese Homes for Chemicals with Liver X Receptors Binding Activities and Characterization of Atherosclerotic Activity Using an in Vitro Macrophage Cell Line and ApoE^−/− Mice” (Environmental Health Perspectives, 2019).

Data set [1] concerns peroxisome proliferator-activated receptor-γ (PPARγ). Also noted: method as in Hu et al. 2017; Pillai et al. 2014. The following applies: ref Hu et al. 2017; Pillai et al. 2014; cited from earlier work.
A further data set has as its target T1, human LXRβ (Homo sapiens, UniProt P55055).
T1 sequence (P55055 219-460): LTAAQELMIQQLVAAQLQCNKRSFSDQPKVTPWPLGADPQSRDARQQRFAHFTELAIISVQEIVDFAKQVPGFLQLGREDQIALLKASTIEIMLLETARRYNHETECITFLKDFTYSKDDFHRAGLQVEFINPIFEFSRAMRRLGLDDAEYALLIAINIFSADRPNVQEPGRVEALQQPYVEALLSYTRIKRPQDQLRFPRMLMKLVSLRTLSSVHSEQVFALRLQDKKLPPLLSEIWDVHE
Briefly: cell-based.

A further data set has as its system ApoE−/− mice. Briefly: Immunofluorescence staining of aortic root sections (MOMA-2, SMCα-Actin) in ApoE−/− mice. The following applies: 13 weeks. It counts as in vivo, mouse. The source says: All experiments related to animals were approved by the institutional animal care and use committee of Peking University and followed the guidelines for animal experiments of the university as well as for experimental animals in China. The biological effect size of the animal experiments was based on the previous paper ([Negro Silva et al. 2017]). C57BL/6 (12 weeks old) and ApoE^−/− mice (12 weeks old) were obtained from the Beijing Vital River Laboratory Animal Technology Company. Mice used in the experiments were acclimated to the housing unit 2 weeks before they were used for experiments, and they were randomly assigned to control or TPHP treatment groups. Five animals were housed to a cage, and mice were acclimatized to the controlled environment (temperature: 22±2°C; relative humidity: 40–60%; artificial lighting: 12 h:12 h light/dark). Mice received diet and drinking water ad libitum. Body weight (BW) was measured every week during the dosing period. Forty-five C57BL/6 mice and 27 ApoE^−/− mice were used in this study. Animal protocol 1: Male C57BL/6 mice (five mice per group) were fed a basic diet (Laboratory Animal Center of the Academy of Military Medical Sciences, China). On Day 0, mice were stimulated with paraffin oil by intraperitoneal injection. From Day 1 to Day 7, mice were exposed to corn oil (control) or TPHP (dissolved in corn oil) at 40 or 200mg/kg BW by daily oral gavage. The volume of the corn oil or TPHP in corn oil administered was 5mL/kg BW. On Day 8, after the mice were anesthetized by sodium pentobarbital via intramuscular injection, peritoneal macrophages were harvested from peritoneal lavage with 4mL pre-warmed DMEM-F12 (containing 10% FBS) using a 25-gauge needle; 5–10 min later, 3–3.5mL peritoneal fluid was collected, and the cells were isolated by centrifuge at 1,000 rpm for 5 min. […] Considering that this study assessed the effects of short-term exposure to TPHP, whereas humans are exposed to TPHP over a lifelong period, the present study used exposure doses that were higher than that of human exposure from house dust. […]

Another data set deals with RAW264.7 macrophages. Briefly: CellTiter-Glo Luminescent Cell Viability Assay. The class given is cell-based. Conditions: 24-h exposure at 1–20,000 nM. On the procedure: RAW264.7 cells were obtained from the National Infrastructure of Cell Line Resource of Beijing, China, and the cells used for the experiment were cultured for at least three passages. Dulbecco’s Modified Eagle’s Medium (DMEM)-F12 medium containing 10% fetal bovine serum (FBS) was employed to culture the RAW264.7 cells. RAW264.7 cells were incubated at 37°C with 5% carbon dioxide. The RAW264.7 cells were plated at 2.5×10^5 cells/well (6-well plates), 6.0×10^4 cells/well (24-well plates), and 10^4 cells/well (96-well plates). The RAW264.7 cells were plated and grown overnight; then the medium was removed and fresh DMEM-F12 contained with 0.1% DMSO (control; n=3 ) or TPHP at the concentrations of 1–20,000 nM ( n=3 per group) was added. […] Then the cells were used for the quantitative reverse transcription (qRT)-PCR, cellular cholesterol efflux assay, and foam cell formation experiment.
Cell viability was assessed using the CellTiter-Glo® Luminescent Cell Viability Assay based on the manufacturer’s instructions ( n=3 per group). Luminescence was assessed using an LB 941 TriStar multimode microplate reader (Berthold Technologies).
For orientation: In ATP-based viability assays light output follows the ATP content of the culture.

The target in the next data set is T2, human LXRα (Homo sapiens, UniProt Q13133).
T2 construct: expressed in transfected cells; host or cells: Saccharomyces cerevisiae Y187
T2 sequence (Q13133 205-447): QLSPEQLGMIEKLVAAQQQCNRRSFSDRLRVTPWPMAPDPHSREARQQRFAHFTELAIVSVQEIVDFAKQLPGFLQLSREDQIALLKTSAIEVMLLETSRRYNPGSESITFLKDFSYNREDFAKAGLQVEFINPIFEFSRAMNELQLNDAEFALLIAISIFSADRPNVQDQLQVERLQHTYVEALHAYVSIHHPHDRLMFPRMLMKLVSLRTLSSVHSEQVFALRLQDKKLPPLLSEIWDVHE
Briefly: cell-based.

In general, IC50 refers to the concentration needed to halve the response being measured. A lower IC50 goes with greater potency. As for `O=P(Oc1ccccc1)(Oc1ccccc1)Oc1ccccc1` [TPHP, triphenyl phosphate], the PPARγ activity result in data set [1] is “agonist”. Moreover, the IC50 worked out at 762 nM at human LXRβ and 1480 nM on human LXRα. Further, the “Macrophage content (MOMA-2) in aortic root lesions, higher than control” value in the data set with ApoE−/− mice (10 mg/kg BW, p<0.05) turned out to be 1.9 fold; in the data set with ApoE−/− mice (40 mg/kg BW, p<0.01), 3.1 fold. In the data set with ApoE−/− mice (10 and 40 mg/kg BW), the “Abundance of SMCs (SMCα-Actin) in the aortic roots versus control” value was “a significant difference was not found”. Moreover, in the data set on RAW264.7 macrophages, the Cell viability result is reported as “no significant loss of cell viability”. Besides, on human LXRα (dust standard reference material SRM2585), the “Contribution to the LXRα-antagonist activity of SRM2585” value is 33.83%. In addition, the “Share of the LXRα-antagonist activity of indoor dust explained by the chemical” value at human LXRα (range over indoor dust samples (Table S4)) was 0.19–51.07%.
